One may read the IC50 as the point on the concentration scale where inhibition reaches its midpoint. Higher therefore signals weaker potency in that assay.

Molecules are shown by their SMILES. ≈ marks a conversion by molar mass, not a printed value.

IC50 data for 2 compounds are collected here from ChEMBL document CHEMBL1151251, “Monanchorin, a bicyclic alkaloid from the sponge Monanchora ungiculata” (J Nat Prod, 2004).

A short description of this test: Cytotoxicity against mouse IC2 cells. The test is classed as functional, cell-based.

The compound `CCCCC[C@@H]1O[C@@H]2CC[C@@H]1NC(=N)N2` [MONANCHORIC ACID] gave an IC50 of 11.3 µg/mL (≈ 53.5 µM). Next, `CC[C@@H]1C=CCC[C@]2(C[C@H]3CC[C@H]4[C@@H](C(=O)O)[C@@]5(CCC[C@H](C)O5)N=C(N2)N34)O1` [CRAMBESIDIN ACID]: 25 µg/mL (≈ 62 µM).
